According to ChEMBL document CHEMBL1201862, “PubChem BioAssay data set” (2004):
Active and inactive are the calls of the source.

Experiments:
[1] = biological target: T1, Short transient receptor potential channel 4 (Mus musculus, UniProt Q9QUQ5); assay: mouse TRPC4 channel activators, dose response, cell-based, HEK293 TRPC4/mu-opioid, Fluo-4 calcium (AID 434937); format: functional
T1 sequence (Q9QUQ5 whole entry): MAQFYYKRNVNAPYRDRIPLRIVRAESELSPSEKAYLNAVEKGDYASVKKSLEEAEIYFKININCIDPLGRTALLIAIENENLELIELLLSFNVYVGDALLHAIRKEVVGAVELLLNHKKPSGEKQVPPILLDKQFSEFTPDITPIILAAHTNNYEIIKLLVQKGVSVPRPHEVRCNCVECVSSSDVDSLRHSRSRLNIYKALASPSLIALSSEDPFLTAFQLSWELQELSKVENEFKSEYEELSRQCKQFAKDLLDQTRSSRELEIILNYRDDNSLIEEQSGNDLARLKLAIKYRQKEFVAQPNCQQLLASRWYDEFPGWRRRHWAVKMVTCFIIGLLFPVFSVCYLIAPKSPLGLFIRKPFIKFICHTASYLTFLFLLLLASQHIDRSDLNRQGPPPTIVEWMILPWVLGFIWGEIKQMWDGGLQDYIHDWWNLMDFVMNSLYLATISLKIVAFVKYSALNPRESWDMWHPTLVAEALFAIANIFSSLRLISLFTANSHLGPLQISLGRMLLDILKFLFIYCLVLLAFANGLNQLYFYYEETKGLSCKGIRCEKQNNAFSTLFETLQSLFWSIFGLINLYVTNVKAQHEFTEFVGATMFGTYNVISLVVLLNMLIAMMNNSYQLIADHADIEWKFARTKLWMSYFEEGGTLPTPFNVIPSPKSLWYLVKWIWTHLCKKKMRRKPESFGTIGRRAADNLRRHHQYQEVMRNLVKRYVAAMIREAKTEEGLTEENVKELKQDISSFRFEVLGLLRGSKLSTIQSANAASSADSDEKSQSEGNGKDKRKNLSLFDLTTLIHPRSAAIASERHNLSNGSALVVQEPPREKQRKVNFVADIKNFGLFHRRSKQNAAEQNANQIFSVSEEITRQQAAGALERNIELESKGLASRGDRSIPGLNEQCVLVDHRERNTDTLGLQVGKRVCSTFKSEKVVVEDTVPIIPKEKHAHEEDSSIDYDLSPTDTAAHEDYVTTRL

HEK293 [2] = assay: NOD1 signaling inhibitors, primary screen, cell-based, luminescence, uHTS (AID 1578); format: functional; conditions: Homo sapiens
HEK293 [3] = assay: cells; format: functional, cell-based; conditions: Homo sapiens
HEK293 [4] = assay: cells; format: functional, cell-based; conditions: Homo sapiens; remark: listed apart in the source
HEK293 [5] = assay: NOD2 signaling inhibitors in MDP-stimulated cells, cell-based, uHTS, luminescence (AID 2001); format: functional; conditions: Homo sapiens
[6] = biological target: T2, Corticotropin-releasing factor receptor 2/Corticotropin-releasing factor-binding protein (Homo sapiens, UniProt P24387+Q13324); assay: activators of CRF receptor 2 with binding protein – uHTS hits, confirmation (AID 602473); format: functional; conditions: read-out: EC50_Mean
T2 sequence (Q13324 whole entry): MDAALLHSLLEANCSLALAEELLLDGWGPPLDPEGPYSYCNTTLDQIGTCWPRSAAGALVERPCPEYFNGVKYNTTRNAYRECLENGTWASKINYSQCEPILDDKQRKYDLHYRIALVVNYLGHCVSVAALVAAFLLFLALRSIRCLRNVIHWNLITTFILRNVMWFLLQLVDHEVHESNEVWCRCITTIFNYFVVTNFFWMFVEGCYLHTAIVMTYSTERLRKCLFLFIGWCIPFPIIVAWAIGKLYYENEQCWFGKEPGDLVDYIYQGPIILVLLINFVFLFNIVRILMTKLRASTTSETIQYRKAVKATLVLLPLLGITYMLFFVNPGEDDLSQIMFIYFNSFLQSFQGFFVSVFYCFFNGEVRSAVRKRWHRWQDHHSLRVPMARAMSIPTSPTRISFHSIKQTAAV
T2 sequence (P24387 whole entry): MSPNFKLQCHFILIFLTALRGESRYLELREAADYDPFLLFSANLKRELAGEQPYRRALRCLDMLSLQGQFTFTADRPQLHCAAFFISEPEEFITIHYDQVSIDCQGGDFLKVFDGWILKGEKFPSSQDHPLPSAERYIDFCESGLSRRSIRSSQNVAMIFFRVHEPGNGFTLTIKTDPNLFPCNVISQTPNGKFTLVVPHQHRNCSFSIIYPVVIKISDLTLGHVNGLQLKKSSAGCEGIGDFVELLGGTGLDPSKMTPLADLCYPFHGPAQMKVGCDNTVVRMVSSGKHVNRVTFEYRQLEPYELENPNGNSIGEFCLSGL

[7] = tested on: Streptococcus sp. 'group A'; assay: growth inhibition of control SK(-) GAS strain, dose response, counter-screen for streptokinase expression inhibitor project, luminescence, kanamycin, BacTiterGlo, confirmation (AID 1900); format: functional, organism-based
Streptokinase A = biological target: T3, Streptokinase A (Streptococcus pyogenes serotype M1, UniProt P10520); assay: S. pyogenes streptokinase expression inhibitors, potency, dose response, plasminogen activation absorbance, OD405 (AID 1914); format: functional, Streptococcus pyogenes M1 GAS;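 further: secreted streptokinase activity via plasminogen activation per viability signal from cell pellet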
T3 sequence (P10520 whole entry): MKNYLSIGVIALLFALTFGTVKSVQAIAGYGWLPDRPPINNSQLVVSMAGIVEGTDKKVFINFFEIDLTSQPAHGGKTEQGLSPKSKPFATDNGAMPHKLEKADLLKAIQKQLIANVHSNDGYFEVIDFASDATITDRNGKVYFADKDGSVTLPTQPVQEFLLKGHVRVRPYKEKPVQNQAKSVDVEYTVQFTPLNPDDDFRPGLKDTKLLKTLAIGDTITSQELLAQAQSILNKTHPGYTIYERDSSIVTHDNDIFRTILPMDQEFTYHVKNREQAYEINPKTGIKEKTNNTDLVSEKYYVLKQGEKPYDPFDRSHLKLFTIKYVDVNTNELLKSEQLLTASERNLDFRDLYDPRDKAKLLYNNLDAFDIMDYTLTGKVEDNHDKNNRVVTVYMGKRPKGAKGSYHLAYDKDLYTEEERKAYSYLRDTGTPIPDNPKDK

Streptococcus = assay: Group A Streptococcus viability loss, dose response, counter-screen for streptokinase expression inhibitor project, luminescence, BacTiterGlo (AID 1915); format: functional, organism-based;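 further: potency for reduction of bacterial viability or growth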

Row | Compound | EC50 [1] | EC50 (HEK293 [2]) | IC50 (HEK293 [3]) | IC50 (HEK293 [4]) | IC50 (HEK293 [5]) | other results
1 | CN(C)C(CNC(=O)CCc1c[nH]c2ccccc12)c1ccccc1 (stereo unspecified) | 0.0747 µM (active) | – | – | – | – | –
2 | CC(Sc1n[nH]c2c3ccccc3nc-2n1)C(=O)NC1CCCCC1 (stereo unspecified) | – | 4.88 µM (active) | 11.1 µM (active) | > 20 µM (inactive) | 9.89 µM (active) | –
3 | Cc1ccc(O)c(C(=O)c2cc(C#N)c3nc4ccccc4n3c2)c1 | – | 3.28 µM (active) | 14.8 µM (active) | > 20 µM (inactive) | 10.2 µM (inactive) | EC50 [6]: 17.5 µM (active)
4 | S=C(Nc1ccc(Oc2ccccc2)cc1)N1CCN(c2ccccn2)CC1 | – | 9.44 µM (active) | 5.27 µM (active) | > 20 µM (inactive) | 6.67 µM (active) | –
5 | CCCCC(c1nnnn1CC1CCCO1)N1CCN(c2nc3ccccc3s2)CC1 (stereo unspecified) | 1.06 µM (active) | – | – | – | – | –
6 | CCN1CCN(c2c(S(=O)(=O)c3ccc(C)c(C)c3)cnc3ccc(F)cc23)CC1 | 0.944 µM (active) | – | – | – | – | –
7 | CN(CCc1ccccn1)C(=S)Nc1cccc(S(=O)(=O)N(C)C)c1 | 5.31 µM (active) | – | – | – | – | –
8 | CCOC(=O)C1=NN(C(=O)c2ccc(C)cc2)C(O)(c2ccc(Cl)cc2)C1 (stereo unspecified) | 9.44 µM (active) | – | – | – | – | EC50 [7]: 2.15 µM (active); EC50 (Streptokinase A): > 150 µM (not active); EC50 (Streptococcus): 8.19 µM (active)
